The numbers were not newly measured in paper PMC3048208 (British Journal of Cancer, 2011), which cites them from elsewhere.

On the set-up of the data set: method as in Kelly et al, 2005; Steele et al, 2008. The conditions noted are these: ref Kelly et al, 2005; Steele et al, 2008; cited from earlier work.

On to `O=C(/C=C/c1cccc(S(=O)(=O)Nc2ccccc2)c1)NO` [belinostat], for which the half-life (as a rule, how long it takes for the measured level to halve) is 1 to 2 h.

Take `O=C(CCCCCCC(=O)Nc1ccccc1)NO` [vorinostat, suberoylanilide hydroxamic acid]: the half-life is 1 to 2 h.
